Measured values from US9458153B2, “Dihydroquinolizinones for the treatment and prophylaxis of hepatitis B virus infection” (Hoffmann-La Roche Inc., priority 2014, dated 2016).
Counter-ions that a name gives are not always drawn.

System: HBsAg
Assay: HBsAg assay (chemiluminescence immunoassay of secreted HBsAg in HepG2.2.15 culture supernatant)
Type: cell-based, HBV
Conditions: HepG2.2.15 cells, CLIA kit
Summary of the method: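 IC50 came from dose-response curves of HBsAg in culture supernatant, measured semi-quantitatively by chemiluminescent immunoassay. The HBV-producing HepG2.2.15 line was dosed in duplicate with a three-fold compound dilution series, with DMSO at 1% final and DMSO alone as the no-drug control.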

[1] = HBsAg secretion reduced by 50% vs no drug control
[2] = Hepatitis B virus, HepG2.2.15, HBsAg secretion reduced by 50% vs no drug control
[3] = HBsAg secretion reduced by 50% vs no drug control, hydrochloride

Row | Compound | IC50 [1] [µM] | IC50 [2] [µM] | other results
1 | COc1cc2c(cc1OCCCCCO)CC(C(C)(C)C)n1cc(C(=O)O)c(=O)cc1-2 (single isomer, unassigned; (-)) [Example 154, (−)-6-tert-butyl-9-(5-hydroxypentoxy)-10-methoxy-2-oxo-6,7-dihydrobenzo[a]quinolizine-3-carboxylic acid] | 0.12 | – | –
2 | CCCCOc1cc2c(cc1OC)-c1cc(=O)c(C(=O)O)cn1C(CC)C2 (stereo not drawn) [Example 15, 9-butoxy-6-ethyl-10-methoxy-2-oxo-6,7-dihydrobenzo[a]quinolizine-3-carboxylic acid] | – | 0.016 | –
3 | COc1cc2c(cc1OCCCC(=O)O)CC(C(C)(C)C)n1cc(C(=O)O)c(=O)cc1-2 (stereo not drawn) [Example 218, 6-tert-butyl-9-(3-carboxypropoxy)-10-methoxy-2-oxo-6,7-dihydrobenzo[a]quinolizine-3-carboxylic acid] | – | 0.145 | –
4 | COc1cc2c(cc1OCCN1CCOCC1)CC(C(C)(C)C)n1cc(C(=O)O)c(=O)cc1-2 (stereo not drawn) [Example 189, 6-tert-butyl-10-methoxy-9-(2-morpholinoethoxy)-2-oxo-6,7-dihydrobenzo[a]quinolizine-3-carboxylic acid hydrochloride] | – | – | IC50 [3]: 0.018 µM
5 | COCCCOc1cc2c(cc1Cl)-c1cc(=O)c(C(=O)O)cn1C(C(C)(C)C)C2 (single isomer, unassigned; (+)) [Example 203, (+)-6-tert-butyl-10-chloro-9-(3-methoxypropoxy)-2-oxo-6,7-dihydrobenzo[a]quinolizine-3-carboxylic acid] | 0.0003 | – | –
6 | COc1cc2c(cc1OCCN1CCOCC1)CC(C(C)(C)C)n1cc(C(=O)O)c(=O)cc1-2 (single isomer, unassigned; (-)) [Example 191, (−)-6-tert-butyl-10-methoxy-9-(2-morpholinoethoxy)-2-oxo-6,7-dihydrobenzo[a]quinolizine-3-carboxylic acid] | 0.19 | – | –
7 | COc1cc2c(cc1OCC(C)(C)CO)CC(C(C)(C)C)n1cc(C(=O)O)c(=O)cc1-2 (single isomer, unassigned; (-)) [Example 151, (−)-6-tert-butyl-9-(3-hydroxy-2,2-dimethyl-propoxy)-10-methoxy-2-oxo-6,7-dihydrobenzo[a]quinolizine-3-carboxylic acid] | 0.16 | – | –
8 | C[C@@H]1Cc2cc(Br)ccc2-c2cc(=O)c(C(=O)O)cn21 [Example 61, (+)-9-bromo-6-methyl-2-oxo-6,7-dihydrobenzo[a]quinolizine-3-carboxylic acid] | – | 6.02 | –
9 | COCCCOc1cc2c(c(Cl)c1F)-c1cc(=O)c(C(=O)O)cn1C(C(C)C)C2 (single isomer, unassigned; (-)) [Example 139, (−)-11-chloro-10-fluoro-6-isopropyl-9-(3-methoxypropoxy)-2-oxo-6,7-dihydrobenzo[a]quinolizine-3-carboxylic acid] | 0.129 | – | –
10 | C=CC(F)(F)Oc1cc2c(cc1OC)-c1cc(=O)c(C(=O)O)cn1C(C(C)(C)C)C2 (stereo not drawn) [Example 182, 6-tert-butyl-9-(1,1-difluoroallyloxy)-10-methoxy-2-oxo-6,7-dihydrobenzo[a]quinolizine-3-carboxylic acid] | – | 0.016 | –
11 | CCOc1cc2c(cc1OC)-c1cc(=O)c(C(=O)O)cn1C(CC)C2 (single isomer, unassigned; (-)) [Example 38, (−)-9-ethoxy-6-ethyl-10-methoxy-2-oxo-6,7-dihydrobenzo[a]quinolizine-3-carboxylic acid] | 1.81 | – | –
12 | COc1cc2c(cc1OC)-c1cc(=O)c(C(=O)O)cn1C(CC(C)C)C2 (single isomer, unassigned; (+)) [Example 102, (+)-6-isobutyl-9,10-dimethoxy-2-oxo-6,7-dihydrobenzo[a]quinolizine-3-carboxylic acid] | 0.042 | – | –
13 | COCCCOc1cc2c(cc1OC)-c1cc(=O)c(C(=O)O)cn1C(CC(F)(F)F)C2 (stereo not drawn) [Example 199, 10-methoxy-9-(3-methoxypropoxy)-2-oxo-6-(2,2,2-trifluoroethyl)-6,7-dihydrobenzo[a]quinolizine-3-carboxylic acid] | 0.033 | – | –
14 | COc1cc2c(cc1OCCCCCCCCN)CC(C(C)(C)C)n1cc(C(=O)O)c(=O)cc1-2 (single isomer, unassigned; (+)) [Example 170, (+)-9-(8-aminooctoxy)-6-tert-butyl-10-methoxy-2-oxo-6,7-dihydrobenzo[a]quinolizine-3-carboxylic acid hydrochloride] | – | – | IC50 [3]: 0.008 µM
15 | COc1cc2c(cc1OC)-c1cc(=O)c(C(=O)O)cn1C(C)C2 (single isomer, unassigned; (-)) [Example 68, (−)-9,10-dimethoxy-6-methyl-2-oxo-6,7-dihydrobenzo[a]quinolizine-3-carboxylic acid] | 5.67 | – | –
16 | COc1cc2c(cc1OCCCN1CCCC1=O)CC(C(C)(C)C)n1cc(C(=O)O)c(=O)cc1-2 (stereo not drawn) [Example 195, 6-tert-butyl-10-methoxy-2-oxo-9-[3-(2-oxopyrrolidin-1-yl)propoxy]-6,7-dihydrobenzo[a]quinolizine-3-carboxylic acid] | – | 0.057 | –
17 | CCC1Cc2cc(OCC(C)C)c(OC)cc2-c2cc(=O)c(C(=O)O)cn21 (single isomer, unassigned; (-)) [Example 35, (−)-6-ethyl-9-isobutoxy-10-methoxy-2-oxo-6,7-dihydrobenzo[a]quinolizine-3-carboxylic acid] | 1.39 | – | –

Row | Compound | IC50 [1] [µM] | IC50 [2] [µM] | other results
18 | COc1cc2c(cc1C)-c1cc(=O)c(C(=O)O)cn1C(C)C2 (stereo not drawn) [Example 73, 9-methoxy-6,10-dimethyl-2-oxo-6,7-dihydrobenzo[a]quinolizine-3-carboxylic acid] | – | 0.14 | –
19 | COc1cc2c(cc1OCCCS(C)(=O)=O)CC(C(C)(C)C)n1cc(C(=O)O)c(=O)cc1-2 (stereo not drawn) [Example 186, 6-tert-butyl-10-methoxy-9-(3-methylsulfonylpropoxy)-2-oxo-6,7-dihydrobenzo[a]quinolizine-3-carboxylic acid] | 0.02 | – | –
20 | CCC1Cc2cc(OCC3CC3)c(OC)cc2-c2cc(=O)c(C(=O)O)cn21 (single isomer, unassigned; (-)) [Example 32, (−)-9-(cyclopropylmethoxy)-6-ethyl-10-methoxy-2-oxo-6,7-dihydrobenzo[a]quinolizine-3-carboxylic acid] | 0.075 | – | –
21 | COCCCOc1cc2c(c(Cl)c1F)-c1cc(=O)c(C(=O)O)cn1C(C(C)C)C2 (single isomer, unassigned; (+)) [Example 138, (+)-11-chloro-10-fluoro-6-isopropyl-9-(3-methoxypropoxy)-2-oxo-6,7-dihydrobenzo[a]quinolizine-3-carboxylic acid] | 0.009 | – | –
22 | CC[C@@H]1Cc2cc(OCCN3CCCC3=O)c(OC)cc2-c2cc(=O)c(C(=O)O)cn21 [Example 55, (+)-6-ethyl-10-methoxy-2-oxo-9-[2-(2-oxopyrrolidin-1-yl)ethoxy]-6,7-dihydrobenzo[a]quinolizine-3-carboxylic acid] | – | 0.72 | –
23 | COc1cc2c(cc1OCCCCCCN)CC(C(C)(C)C)n1cc(C(=O)O)c(=O)cc1-2 (stereo not drawn) [Example 160, 9-(6-aminohexoxy)-6-tert-butyl-10-methoxy-2-oxo-6,7-dihydrobenzo[a]quinolizine-3-carboxylic acid] | 0.018 | – | –
24 | CNc1cccc2c1-c1cc(=O)c(C(=O)O)cn1C(C)C2 (stereo not drawn) [Example 64, 6-methyl-11-(methylamino)-2-oxo-6,7-dihydrobenzo[a]quinolizine-3-carboxylic acid] | – | 24.9 | –
25 | COc1cc2c(cc1OCCCCCCN)CC(C(C)(C)C)n1cc(C(=O)O)c(=O)cc1-2 (single isomer, unassigned; (-)) [Example 165, (−)-9-(6-aminohexoxy)-6-tert-butyl-10-methoxy-2-oxo-6,7-dihydrobenzo[a]quinolizine-3-carboxylic acid hydrochloride] | – | – | IC50 [3]: 1.55 µM
26 | CCC1Cc2cc(OCCOC)c(OC)cc2-c2cc(=O)c(C(=O)O)cn21 (stereo not drawn) [Example 27, 6-ethyl-10-methoxy-9-(2-methoxyethoxy)-2-oxo-6,7-dihydrobenzo[a]quinolizine-3-carboxylic acid] | 0.056 | – | –
27 | COc1cc2c(cc1OCCCCO)CC(C(C)(C)C)n1cc(C(=O)O)c(=O)cc1-2 (stereo not drawn) [Example 158, 6-tert-butyl-9-(4-hydroxybutoxy)-10-methoxy-2-oxo-6,7-dihydrobenzo[a]quinolizine-3-carboxylic acid] | – | 0.003 | –
28 | COc1cc2c(cc1OC)-c1cc(=O)c(C(=O)O)cn1C(C(F)(F)F)C2 (stereo not drawn) [Example 114, 9,10-dimethoxy-2-oxo-6-(trifluoromethyl)-6,7-dihydrobenzo[a]quinolizine-3-carboxylic acid] | – | 0.15 | –
29 | COc1cc2c(cc1OCCCCCO)CC(C(C)(C)C)n1cc(C(=O)O)c(=O)cc1-2 (stereo not drawn) [Example 152, 6-tert-butyl-9-(5-hydroxypentoxy)-10-methoxy-2-oxo-6,7-dihydrobenzo[a]quinolizine-3-carboxylic acid] | 0.002 | – | –
30 | CCC1Cc2cc(OCC3CCOCC3)c(OC)cc2-c2cc(=O)c(C(=O)O)cn21 (single isomer, unassigned; (-)) [Example 50, (−)-6-ethyl-10-methoxy-2-oxo-9-(tetrahydropyran-4-ylmethoxy)-6,7-dihydrobenzo[a]quinolizine-3-carboxylic acid] | 0.4 | – | –
31 | CCC1Cc2cc(OCC(F)F)c(OC)cc2-c2cc(=O)c(C(=O)O)cn21 (single isomer, unassigned; (-)) [Example 47, (−)-9-(2,2-difluoroethoxy)-6-ethyl-10-methoxy-2-oxo-6,7-dihydrobenzo[a]quinolizine-3-carboxylic acid] | 3.4 | – | –
32 | CCC1Cc2cc(OCCN3CCCC3=O)c(OC)cc2-c2cc(=O)c(C(=O)O)cn21 (stereo not drawn) [Example 54, 6-ethyl-10-methoxy-2-oxo-9-[2-(2-oxopyrrolidin-1-yl)ethoxy]-6,7-dihydrobenzo[a]quinolizine-3-carboxylic acid] | – | 0.13 | –
33 | CCC1Cc2cc(OCC(C)(C)CO)c(OC)cc2-c2cc(=O)c(C(=O)O)cn21 (single isomer, unassigned; (+)) [Example 23, (+)-6-ethyl-9-(3-hydroxy-2,2-dimethyl-propoxy)-10-methoxy-2-oxo-6,7-dihydrobenzo[a]quinolizine-3-carboxylic acid] | 0.012 | – | –
